pIC50: −log10 of the molar value.
Test system: SARS-CoV-2
Test: microbe, parasite or virus in culture
Settings: Severe acute respiratory syndrome coronavirus 2, Vero C1008, 48 h; for IC50: read-out: pIC50 (converted)

| SMILES | pIC50 | IC50 [µM] |
| --- | --- | --- |
| C[C@@]12C(=O)OC(=O)[C@]1(C)[C@H]1CC[C@@H]2O1 [CANTHARIDIN] | < 4.70 | > 20 |
| CCCCCOC(=O)Nc1nc(=O)n([C@@H]2O[C@H](C)[C@@H](O)[C@H]2O)cc1F [CAPECITABINE] | < 4.70 | > 20 |
| NC1(C(=O)N[C@@H](CCO)c2ccc(Cl)cc2)CCN(c2nc[nH]c3nccc2-3)CC1 [CAPIVASERTIB] | < 4.70 | > 20 |
| CNC(=O)c1ccc(-c2cnc3ncc(Cc4ccc5ncccc5c4)n3n2)cc1F [CAPMATINIB] | < 4.70 | > 20 |
| COc1cc(C(=O)NCCCCCC(=O)O)cc(OC)c1OC [CAPOBENIC ACID] | < 4.70 | > 20 |
| CN1N=C2CCN(C(=O)[C@@H](COCc3ccccc3)NC(=O)C(C)(C)N)C[C@@]2(Cc2ccccc2)C1=O [CAPROMORELIN] | < 4.70 | > 20 |
| COc1cc(CNC(=O)CCCC/C=C/C(C)C)ccc1O [CAPSAICIN] | < 4.70 | > 20 |
| C[C@H](CS)C(=O)N1CCC[C@H]1C(=O)O [CAPTOPRIL] | < 4.70 | > 20 |
| COC(=O)N/N=C/c1c[n+]([O-])c2ccccc2[n+]1[O-] [CARBADOX] | < 4.70 | > 20 |
| NC(=O)N1c2ccccc2C2OC2c2ccccc21 (stereo not drawn) [CARBAMAZEPINE EPOXIDE] | < 4.70 | > 20 |
| NC(=O)N1c2ccccc2C=Cc2ccccc21 [CARBAMAZEPINE] | < 4.70 | > 20 |
| C[N+](C)(C)CCOC(N)=O [CARBAMOYLCHOLINE] | < 4.70 | > 20 |
| CNC(=O)Oc1cccc2ccccc12 [CARBARIL] | < 4.70 | > 20 |
| CCNC(=O)OC1CCN(c2nncc3cc(OC)c(OC)cc23)CC1 [CARBAZERAN] | < 4.70 | > 20 |
| CN1C2=CC(=O)/C(=N\NC(N)=O)C=C2CC1S(=O)(=O)O (stereo not drawn) [CARBAZOCHROME SULFONIC ACID] | < 4.70 | > 20 |
| CC1(C)[C@@H](OC(=O)CCC(=O)O)CC[C@]2(C)[C@H]3C(=O)C=C4[C@@H]5C[C@@](C)(C(=O)O)CC[C@]5(C)CC[C@@]4(C)[C@]3(C)CC[C@@H]12 [CARBENOXOLONE] | < 4.70 | > 20 |
| CCN(CC)CCOCCOC(=O)C1(c2ccccc2)CCCC1 [CARBETAPENTANE] | < 4.70 | > 20 |
| C[C@@](Cc1ccc(O)c(O)c1)(NN)C(=O)O [CARBIDOPA ANHYDROUS] | < 4.70 | > 20 |
| CCOC(=O)n1ccn(C)c1=S [CARBIMAZOLE] | < 4.70 | > 20 |
| CN(C)CCOC(c1ccc(Cl)cc1)c1ccccn1 (stereo not drawn) [CARBINOXAMINE] | < 4.70 | > 20 |
| CCOC(C(=O)N(C)CCN(C)CCc1ccccc1)(c1ccccc1)c1ccccc1 [CARBIPHENE] | < 4.70 | > 20 |
| CC1=C(C(=O)Nc2ccccc2)SCCO1 [CARBOXIN] | < 4.70 | > 20 |
| NC(=O)c1nnn(Cc2cc(Cl)c(C(=O)c3ccc(Cl)cc3)c(Cl)c2)c1N [CARBOXYAMIDOTRIAZOLE] | < 4.70 | > 20 |

| SMILES | pIC50 | IC50 [µM] |
| --- | --- | --- |
| CCC(Br)(CC)C(=O)NC(N)=O [CARBROMAL] | < 4.70 | > 20 |
| CCCCNC(=O)NS(=O)(=O)c1ccc(N)cc1 [CARBUTAMIDE] | < 4.70 | > 20 |
| NCCC(=O)NCCc1c[nH]cn1 [CARCININE] | < 4.70 | > 20 |
| CC(C)C[C@H](NC(=O)[C@H](CCc1ccccc1)NC(=O)CN1CCOCC1)C(=O)N[C@@H](Cc1ccccc1)C(=O)N[C@@H](CC(C)C)C(=O)[C@@]1(C)CO1 [CARFILZOMIB] | < 4.70 | > 20 |
| CCCC(C)(COC(N)=O)COC(=O)NC(C)C (stereo not drawn) [CARISOPRODOL] | < 4.70 | > 20 |
| CCCCCCNC(=O)n1cc(F)c(=O)[nH]c1=O [CARMOFUR] | < 4.70 | > 20 |
| O=NN(CCCl)C(=O)NCCCl [CARMUSTINE] | < 4.70 | > 20 |
| COC(=S)NCCn1c([N+](=O)[O-])cnc1C [CARNIDAZOLE] | < 4.70 | > 20 |
| C[N+](C)(C)CC(O)CC(=O)[O-] (stereo not drawn) [CARNITINE] | < 4.70 | > 20 |
| NCCC(=O)N[C@@H](Cc1c[nH]cn1)C(=O)O [CARNOSINE] | < 4.70 | > 20 |
| NC(=O)CN1Cc2ccccc2OC1=O [CAROXAZONE] | < 4.70 | > 20 |
| CC(C(=O)O)c1ccc2c(c1)[nH]c1ccc(Cl)cc12 (stereo not drawn) [CARPROFEN] | < 4.70 | > 20 |
| OC(CSc1ncnc2[nH]cnc12)CN1CCN(C(c2ccc(F)cc2)c2ccc(F)cc2)CC1 (stereo not drawn) [CARSATRIN] | < 4.70 | > 20 |
| CC(C)(C)NCC(O)COc1cccc2c1CCC(=O)N2 (stereo not drawn) [CARTEOLOL] | < 4.70 | > 20 |
| NS(=O)(=O)c1ccc(C(=O)O)cc1 [CARZENIDE] | < 4.70 | > 20 |
| CC(=O)Oc1cc(OC(C)=O)c2c(c1)O[C@H](c1ccc(OC(C)=O)c(OC(C)=O)c1)[C@@H](OC(C)=O)C2 [CATECHIN PENTAACETATE] | < 4.70 | > 20 |
| Oc1cc(O)c2c(c1)OC(c1ccc(O)c(O)c1)C(O)C2 (stereo not drawn) [CATECHIN] | < 4.70 | > 20 |
| COc1ccc([C@H](Cc2ccncc2)c2ccccc2)cc1OC1CCCC1 [CDP840] | < 4.70 | > 20 |
| COC[C@H](O)Cn1c(=O)cnn(-c2ccc(Cl)c(C(=O)NCC3(O)CCCCCC3)c2)c1=O [CE-224535] | < 4.70 | > 20 |
| COc1cc2c(Oc3ccc4[nH]c(C)cc4c3F)ncnc2cc1OCCCN1CCCC1 [CEDIRANIB] | < 4.70 | > 20 |
| N[C@@H](C(=O)N[C@@H]1C(=O)N2C(C(=O)O)=C(Cl)CS[C@H]12)c1ccccc1 [CEFACLOR ANHYDROUS] | < 4.70 | > 20 |
| Cn1nnnc1SCC1=C(C(=O)O)N2C(=O)[C@@H](NC(=O)[C@H](O)c3ccccc3)[C@H]2SC1 [CEFAMANDOLE] | < 4.70 | > 20 |
| Cc1nnc(SCC2=C(C(=O)O)N3C(=O)[C@@H](NC(=O)Cn4cnnn4)[C@H]3SC2)s1 [CEFAZOLIN] | < 4.70 | > 20 |

| SMILES | pIC50 | IC50 [µM] |
| --- | --- | --- |
| C=CC1=C(C(=O)O)N2C(=O)[C@@H](NC(=O)/C(=N\OCC(=O)O)c3csc(N)n3)[C@H]2SC1 [CEFIXIME] | < 4.70 | > 20 |
| CO[C@@]1(NC(=O)CSCC#N)C(=O)N2C(C(=O)O)=C(CSc3nnnn3C)CS[C@@H]21 [CEFMETAZOLE] | < 4.70 | > 20 |
| CCN1CCN(C(=O)N[C@@H](C(=O)N[C@@H]2C(=O)N3C(C(=O)O)=C(CSc4nnnn4C)CS[C@H]23)c2ccc(O)cc2)C(=O)C1=O [CEFOPERAZONE] | < 4.70 | > 20 |
| NCc1ccccc1CC(=O)N[C@@H]1C(=O)N2C(C(=O)O)=C(CSc3nnnn3CC(=O)O)CS[C@H]12 [CEFORANIDE] | < 4.70 | > 20 |
| CO/N=C(\C(=O)N[C@@H]1C(=O)N2C(C(=O)O)=C(COC(C)=O)CS[C@H]12)c1csc(N)n1 [CEFOTAXIME] | < 4.70 | > 20 |
| CO[C@@]1(NC(=O)C2SC(=C(C(N)=O)C(=O)O)S2)C(=O)N2C(C(=O)O)=C(CSc3nnnn3C)CS[C@@H]21 (stereo partly drawn) [CEFOTETAN] | < 4.70 | > 20 |
| CN(C)CCn1nnnc1SCC1=C(C(=O)O)N2C(=O)[C@@H](NC(=O)Cc3csc(N)n3)[C@H]2SC1 [CEFOTIAM] | < 4.70 | > 20 |
| CO[C@@]1(NC(=O)Cc2cccs2)C(=O)N2C(C(=O)O)=C(COC(N)=O)CS[C@@H]21 [CEFOXITIN] | < 4.70 | > 20 |
| COCC1=C(C(=O)OC(C)OC(=O)OC(C)C)N2C(=O)[C@@H](NC(=O)/C(=N\OC)c3csc(N)n3)[C@H]2SC1 (stereo partly drawn) [CEFPODOXIME PROXETIL] | < 4.70 | > 20 |
| CC(C)(O/N=C(\C(=O)N[C@@H]1C(=O)N2C(C(=O)[O-])=C(C[n+]3ccccc3)CS[C@H]12)c1csc(N)n1)C(=O)O [CEFTAZIDIME] | < 4.70 | > 20 |
| CO/N=C(\C(=O)N[C@@H]1C(=O)N2C(C(=O)O)=C(CSc3nc(=O)c(O)nn3C)CS[C@H]12)c1csc(N)n1 [CEFTRIAXONE] | < 4.70 | > 20 |
| CO/N=C(\C(=O)N[C@@H]1C(=O)N2C(C(=O)O)=C(COC(N)=O)CS[C@H]12)c1ccco1 [CEFUROXIME] | < 4.70 | > 20 |
| Cc1ccc(-c2cc(C(F)(F)F)nn2-c2ccc(S(N)(=O)=O)cc2)cc1 [CELECOXIB] | < 4.70 | > 20 |
| CCCC(=O)O[C@H]1CN2CC[C@H](O)[C@@H]2[C@@H](O)[C@@H]1O [CELGOSIVIR] | < 4.70 | > 20 |
| CCN(CC)C(=O)Nc1ccc(OCC(O)CNC(C)(C)C)c(C(C)=O)c1 (stereo not drawn) [CELIPROLOL] | < 4.70 | > 20 |
| NC(=O)O[C@@H](Cn1ncnn1)c1ccccc1Cl [CENOBAMATE] | < 4.70 | > 20 |
| COc1cc2ncnc(Oc3cccc(NC(=O)Nc4cc(C(C)(C)C(F)(F)F)on4)c3)c2cc1OC [CEP-32496] | < 4.70 | > 20 |
| CC[C@H]1CN2CCc3cc(OC)c(OC)cc3[C@@H]2C[C@@H]1C[C@H]1NCCc2cc(O)c(OC)cc21 [CEPHAELINE] | < 4.70 | > 20 |
| CC1=C(C(=O)O)N2C(=O)[C@@H](NC(=O)[C@H](N)c3ccccc3)[C@H]2SC1 [CEPHALEXIN ANHYDROUS] | < 4.70 | > 20 |
| CCS(=O)(=O)N1CCN(c2ccc(Nc3ncc(C(N)=O)c(NC4CC4)n3)cc2)CC1 [CERDULATINIB] | < 4.70 | > 20 |
| Cc1cc(Nc2ncc(Cl)c(Nc3ccccc3S(=O)(=O)C(C)C)n2)c(OC(C)C)cc1C1CCNCC1 [CERITINIB] | < 4.70 | > 20 |
| COCc1c(C(C)C)nc(C(C)C)c(/C=C/[C@@H](O)C[C@@H](O)CC(=O)O)c1-c1ccc(F)cc1 [CERIVASTATIN] | < 4.70 | > 20 |
| NCCCC[C@H](OP(=O)(O)CCCCc1ccccc1)C(=O)N1CCC[C@H]1C(=O)O [CERONAPRIL] | < 4.70 | > 20 |

— ChEMBL document CHEMBL4651402, “Screening of ~5500 FDA-approved drugs and clinical candidates for anti-SARS-CoV-2 activity” (2021)
